Data: ChEMBL document CHEMBL1201862, “PubChem BioAssay data set” (2004)
Calls of active or inactive are those of the source.

Key:
[1] = molecular target: T1, Small ubiquitin-related modifier 1 (Homo sapiens, UniProt P63165); test: SUMO1 protein interaction blockers, potency – biochemical, fluorescence polarization, uHTS hits, dose response (AID 624382); type: functional; settings: read-out: IC50_Mean
[2] = molecular target: T1, Small ubiquitin-related modifier 1; test: SUMO1 protein-protein binding blockers, potency – biochemical, FRET, dose response (AID 624383); type: functional; settings: read-out: IC50_Mean
[3] = molecular target: T2, High affinity choline transporter 1 (Homo sapiens, UniProt Q9GZV3); test: human choline transporter blockers, potency – cell-based, 5-point CRC, membrane potential dye, dose response (AID 504840); type: functional
T2 sequence (Q9GZV3 whole entry): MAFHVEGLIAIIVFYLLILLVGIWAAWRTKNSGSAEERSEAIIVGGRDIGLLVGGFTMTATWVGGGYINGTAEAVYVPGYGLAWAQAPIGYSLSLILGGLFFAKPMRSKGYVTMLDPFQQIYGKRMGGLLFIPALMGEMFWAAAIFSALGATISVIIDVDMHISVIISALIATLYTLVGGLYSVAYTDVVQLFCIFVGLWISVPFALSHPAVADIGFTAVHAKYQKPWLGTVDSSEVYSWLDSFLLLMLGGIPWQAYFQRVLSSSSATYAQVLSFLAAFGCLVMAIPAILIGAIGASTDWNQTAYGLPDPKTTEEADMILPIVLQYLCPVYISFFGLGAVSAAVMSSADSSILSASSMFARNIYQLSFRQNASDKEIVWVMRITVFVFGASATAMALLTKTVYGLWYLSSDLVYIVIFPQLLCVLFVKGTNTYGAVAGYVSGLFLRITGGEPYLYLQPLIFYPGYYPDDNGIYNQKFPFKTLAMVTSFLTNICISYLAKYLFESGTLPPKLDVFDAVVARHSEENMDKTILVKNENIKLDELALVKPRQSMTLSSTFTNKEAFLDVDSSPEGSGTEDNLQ

Cytochrome P450 2C9 = Cytochrome P450 2C9 (Homo sapiens, UniProt P11712)
[4] = molecular target: T2, High affinity choline transporter 1; test: human choline transporter blockers, potency – cell-based, 10-point CRC, membrane potential dye, dose response (AID 588401); type: functional;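 further: membrane potential dye fluorescence of choline-evoked depolarization via CHT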
[5] = molecular target: T3, Zinc finger protein mex-5 (Caenorhabditis elegans, UniProt Q9XUB2); test: potency of MEX-5 RNA-binding blockers – biochemical, C. elegans, fluorescence polarization, dose response (AID 1960)
T3 sequence (Q9XUB2 whole entry): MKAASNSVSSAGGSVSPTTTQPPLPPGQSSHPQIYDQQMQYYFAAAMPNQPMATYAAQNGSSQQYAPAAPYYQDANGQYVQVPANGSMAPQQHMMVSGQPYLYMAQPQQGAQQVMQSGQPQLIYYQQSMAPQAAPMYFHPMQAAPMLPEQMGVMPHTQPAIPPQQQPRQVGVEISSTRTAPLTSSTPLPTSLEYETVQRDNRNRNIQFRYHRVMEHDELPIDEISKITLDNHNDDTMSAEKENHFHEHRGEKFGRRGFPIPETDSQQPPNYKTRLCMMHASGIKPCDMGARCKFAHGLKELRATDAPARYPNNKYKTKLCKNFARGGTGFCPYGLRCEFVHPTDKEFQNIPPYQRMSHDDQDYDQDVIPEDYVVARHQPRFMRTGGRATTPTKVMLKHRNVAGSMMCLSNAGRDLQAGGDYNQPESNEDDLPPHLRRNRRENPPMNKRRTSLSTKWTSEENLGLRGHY

[6] = molecular target: T4, Probable nicotinate-nucleotide adenylyltransferase (Staphylococcus aureus (strain N315), UniProt P65502); type: functional, Staphylococcus aureus subsp. aureus N315; settings: read-out: IC50_Mean;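 on IC50 Mean: confirmatory dose-response retesting of NadD inhibitor hits first found in an ultra-high-throughput screen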
[7] = molecular target: T4, Probable nicotinate-nucleotide adenylyltransferase; type: functional, Staphylococcus aureus subsp. aureus N315
[8] = molecular target: T5, RNA-binding protein pos-1 (Caenorhabditis elegans, UniProt G5EF15); test: disruptors of C. elegans POS-1 RNA interaction – biochemical, fluorescence polarization, dose response (AID 1964);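 further: purified POS-1 fused to maltose binding protein made in E. coli; potency of compounds blocking POS-1 binding to fluorescent RNA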
T5 sequence (G5EF15 whole entry): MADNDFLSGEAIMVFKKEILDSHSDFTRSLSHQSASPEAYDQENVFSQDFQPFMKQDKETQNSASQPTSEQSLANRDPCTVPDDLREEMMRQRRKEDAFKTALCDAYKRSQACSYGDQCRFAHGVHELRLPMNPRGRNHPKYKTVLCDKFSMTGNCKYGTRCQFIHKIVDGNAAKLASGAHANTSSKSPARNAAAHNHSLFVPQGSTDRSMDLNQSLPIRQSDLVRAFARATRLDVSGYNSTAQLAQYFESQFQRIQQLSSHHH

Beta-lactamase [9] = molecular target: Beta-lactamase (Salmonella choleraesuis (strain SC-B67), UniProt Q5J463)
Beta-lactamase [10] = molecular target: Beta-lactamase (Pseudomonas aeruginosa, UniProt Q79MP6);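 further: biochemical dose-response test of metallo-beta-lactamase enzyme inhibition, read out by epi-absorbance; purified recombinant IMP-1 metallo-beta-lactamase with nitrocefin as substrate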
[11] = activation of miR-122 Renilla sensor silencing – cell-based, Huh7 psiCHECK-miR122, Renilla luciferase, cherry-picked, dose response (AID 651956); type: functional;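 further: huh7 hepatoma cells stably carrying a psiCHECK-2 miR-122 sensor plasmid; renilla luciferase signal reporting endogenous miR-122 activity after 48 h compound exposure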
[12] = intracellular Trypanosoma cruzi inhibitors in host cells – cell-based, plate reader, cherry-pick samples, set 3, dose response (AID 651818); type: functional;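 further: compounds incubated with infected cells for about four days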
Mu-type opioid receptor = Mu-type opioid receptor (Homo sapiens, UniProt P35372); type: functional, cell-based;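 further: U2OS cells with beta-arrestin recruitment to OPRM1 by beta-gal complementation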
[13] = molecular target: 5-hydroxytryptamine receptor 2A (Mus musculus, UniProt P35363); type: functional, cell-based;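 further: CHO-K1 cells with tagged receptor and beta-arrestin; agonist potency measured as compound-induced activation of the receptor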
Major prion protein = Major prion protein (Homo sapiens, UniProt P04156); type: functional, cell-based
INS1 = test: INS-1E survival protection against cytokine death – cell-based, luminescence, retest, dose response (AID 449756); type: functional; settings: Rattus norvegicus;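 further: cell death triggered by IL-1 beta plus TNF-alpha plus IFN-gamma mixture; protective hits raise ATP signal compared with cytokine alone wells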
[14] = molecular target: Photoreceptor-specific nuclear receptor (Homo sapiens, UniProt Q9Y5X4); type: functional, cell-based;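 further: CHO-S cells with Gal4-NCOR and VP16-NR2E3 two-hybrid luciferase reporter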
[15] = molecular target: T6, Carboxy-terminal domain RNA polymerase II polypeptide A small phosphatase 1 (Homo sapiens, UniProt Q9GZU7); test: CTDSP1 inhibitors, concentration-response, biochemical, absorbance readout, ultra-high-throughput screen actives (AID 540297); type: functional
T6 sequence (Q9GZU7 whole entry): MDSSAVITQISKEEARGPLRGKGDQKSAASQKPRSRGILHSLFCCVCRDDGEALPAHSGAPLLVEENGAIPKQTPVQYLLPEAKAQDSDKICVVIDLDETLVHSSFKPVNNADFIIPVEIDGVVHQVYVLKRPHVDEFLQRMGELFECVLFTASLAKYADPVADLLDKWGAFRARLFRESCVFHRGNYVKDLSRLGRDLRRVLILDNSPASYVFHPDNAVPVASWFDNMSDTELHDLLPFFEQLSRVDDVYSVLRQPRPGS

[16] = T. cruzi growth inhibition in host cells, dose response, cell-based, plate reader, dry powder, set 2 (AID 652275); type: functional
[17] = A549 cell cytotoxicity, dose response, cytotoxicity control, plate reader, cherry-pick, antagonist series (AID 743412); type: functional, cell-based
[18] = blockade of melanocortin 4 receptor signaling – cell-based, plate reader, cherry pick, counter-screen for LGR2 antagonist project, dose response (AID 743444); type: functional;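 further: transfected HEK 293 cells stimulated with alpha-MSH peptide; potency of inhibitors of the alpha-MSH evoked signal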
[19] = molecular target: T7, COUP transcription factor 2 (Homo sapiens, UniProt P24468); test: Luminescence-based cell-based high throughput dose response assay to identify inhibitors of COUP-TFII (NR2F2).; type: functional;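 further: HEK293 cells transiently cotransfected with COUP-TFII expression vector and reporter; luciferase reporter luminescence driven by COUP-TFII from the pX2-168 reporter plasmid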
T7 sequence (P24468 whole entry): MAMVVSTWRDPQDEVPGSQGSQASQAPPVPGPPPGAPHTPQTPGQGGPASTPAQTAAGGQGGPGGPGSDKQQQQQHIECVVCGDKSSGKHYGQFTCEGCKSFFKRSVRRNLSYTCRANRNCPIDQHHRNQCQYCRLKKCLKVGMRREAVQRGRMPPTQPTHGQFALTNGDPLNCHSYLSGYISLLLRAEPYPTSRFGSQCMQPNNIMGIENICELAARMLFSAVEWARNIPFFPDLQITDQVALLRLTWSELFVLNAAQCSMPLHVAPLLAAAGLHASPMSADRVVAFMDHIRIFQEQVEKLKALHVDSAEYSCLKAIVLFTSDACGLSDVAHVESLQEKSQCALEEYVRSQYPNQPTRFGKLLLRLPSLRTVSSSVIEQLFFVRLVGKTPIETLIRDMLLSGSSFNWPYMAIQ

[20] = toxicity toward HepG2 liver cells – cell-based, plate reader, cherry-pick, antagonist series, cytotoxicity control, dose response (AID 743416); type: functional
H9c2 = test: cells; type: functional, cell-based; settings: Rattus norvegicus, H9c2, Myocardium;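 further: confirmatory concentration-response retest of ultra-high-throughput screening hits for modulation of myocardial damage; cell death induced by hydrogen peroxide oxidative stress; compound pretreatment for 60 min then peroxide exposure for 2 h; potency is for protecting the cells against peroxide damage rather than for killing them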
[21] = viability loss in HEK293 cells – cell-based, plate reader, cherry-picked samples, cytotoxicity control, dose response (AID 743446); type: functional
[22] = molecular target: T8, ATP-dependent translocase ABCB1 (Homo sapiens, UniProt P08183); test: P-gp JC-1 efflux blockade concentration-response – Jurkat-DNR cells, flow cytometry, set 2, dose response (AID 504569); type: functional; settings: read-out: EC50_MICROM_;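 further: potency of pump inhibitors that raise cellular JC-1 green fluorescence up to the nicardipine level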
[23] = molecular target: T8, ATP-dependent translocase ABCB1; test: inhibition of BCRP-mediated JC-1 efflux – Ig-MXP3 cells, flow cytometry, set 2, dose response (AID 504566); type: functional; settings: read-out: EC50_MICROM_;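 further: flow cytometry median green fluorescence of retained JC-1 dye; potency of efflux pump inhibition measured as rising substrate retention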
[24] = blockers of bursicon-stimulated LGR2 cAMP reporter – cell-based, HEK293, CRE-luciferase reporter, cherry pick, set 2, dose response (AID 743343); type: functional;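 further: transfected cells were stimulated with diluted bursicon conditioned medium after compound addition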
Genome polyprotein = Genome polyprotein (dengue virus type 2, UniProt P29990); test: flavivirus cap methylation enzyme inhibition – biochemical, confirmation dose response, primary screen (AID 588689); type: functional
[25] = molecular target: DNA (cytosine-5)-methyltransferase 1 (Homo sapiens, UniProt P26358); test: inhibition of DNA methylation by DNMT1 – biochemical, fluorescent molecular beacon, confirmation (AID 602386); type: functional
[26] = IGROV1 cell killing – plate reader, dry powder samples, PAX8 inhibitor project, dose response (AID 743043); type: functional, cell-based; settings: IGROV-1
[27] = OVCAR-3 cell viability loss – plate reader, dry powder samples, PAX8 inhibitor project, dose response (AID 743044); type: functional, cell-based
Paired box protein Pax-8 = Paired box protein Pax-8 (Homo sapiens, UniProt Q06710); test: PAX8 transcriptional activity inhibition in RMG-I – RMG-I cells, luciferase, cherry-pick, dose response (AID 687027); type: functional, cell-based;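 further: luciferase reporter driven by Pax8 target thyroperoxidase promoter measured by SteadyGlo luminescence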
[28] = OVCAR8 cell viability loss – plate reader, dry powder samples, PAX8 project, dose response (AID 743197); type: functional, cell-based; settings: OVCAR-8

COc1ccc(OC)c(Nc2nc3ccccc3n3cnnc23)c1
IC50 [1]: > 66.6 µM (inactive)
IC50 [2]: 19.2 µM (active)

CC(=O)NN1C(=O)c2ccc(Oc3cccc([N+](=O)[O-])c3)cc2C1=O
IC50 [3]: 9.92 µM (active)
AC50 (Cytochrome P450 2C9): 31.6 µM (inconclusive)
IC50 [4]: 4.5 µM (active)

CCCCC1=CC2=CC(=O)C(C)(OC(=O)c3cccs3)C(=O)C2=CO1 (stereo unspecified)
EC50 [5]: 30.9 µM (active)
IC50 [6]: 34.4 µM (active)
IC50 [7]: 10.9 µM (active)
EC50 [8]: 35.4 µM (active)

Cc1nn(-c2ccccc2)c(Cl)c1/C=C(\CC(=O)O)c1nc2ccccc2s1
IC50 (Beta-lactamase [9]): > 59.6 µM (inactive)
IC50 (Beta-lactamase [10]): > 59.6 µM (inactive)

CNC(=O)C[C@H]1CC[C@@H]2[C@H](COc3ccc(NC(=O)Nc4ccccc4OC)cc3C(=O)N2C)O1
AC50 [11]: 23.1 µM (active)

C[C@@H]1CCCCO[C@@H](CN(C)Cc2ccc(C(F)(F)F)cc2)[C@@H](C)CN([C@H](C)CO)C(=O)c2cc(NC(=O)Nc3ccc(C(F)(F)F)cc3)ccc2O1
AC50 [12]: 3.49 µM (active)

COC(=O)C1CCN(CC(=O)Nc2ccc3c(c2)OCCO3)CC1
EC50 (Mu-type opioid receptor): 92.5 µM (inactive)
EC50 [13]: 76.1 µM (inactive)

Cn1c(=O)c(C(=O)CSc2nncs2)c(N)n(Cc2ccccc2)c1=O
IC50 (Major prion protein): 8.53 µM (active)
IC50 (cells): > 138 µM (inactive)

O=[N+]([O-])c1ccc(NC(S)=NCCc2ccc(F)cc2)cc1
AC50 (INS1): 6.89 µM (active)
IC50 [14]: 5.06 µM (active)

CCOC(=O)c1c(NC(=O)COC(=O)c2ccc(NC(=O)CC#N)cc2)sc(C(=O)NC)c1C
IC50 [15]: 3.43 µM (active)
IC50 [1]: > 66.6 µM (inactive)
IC50 [2]: 6.69 µM (active)

Cc1ccccc1-c1ccc([C@H]2[C@H](CO)N3CCCCN(C(=O)CN4CCOCC4)C[C@@H]23)cc1
AC50 [16]: 0.42 µM (active)

COc1ccccc1-c1cc2nc(-c3ccccc3)cc(N3CCN(C(=O)c4ccco4)CC3)n2n1
AC50 [17]: 7.34 µM (active)
AC50 [18]: 6.15 µM (active)
IC50 [19]: 4.17 µM (active)
AC50 [20]: 2.29 µM (active)
IC50 (H9c2): > 79 µM (inactive)
AC50 [21]: 7.31 µM (active)
EC50 [22]: 3.41 µM (active)
EC50 [23]: 0.94 µM (active)
AC50 [24]: 6.6 µM (active)

Nc1ccc(S(=O)(=O)Nc2nccs2)cc1N=Nc1ccccc1[N+](=O)[O-]
IC50 (Genome polyprotein): 64.7 µM (active)
IC50 [25]: 7.09 µM (active)

CCCN(CCC)C1CCc2ccc(O)cc2C1 (stereo unspecified)
EC50 (Mu-type opioid receptor): 92.4 µM (inactive)
EC50 [13]: 0.0038 µM (active)

COc1cccc(-c2ccc3c(c2)[C@H]2[C@H](CCN2S(=O)(=O)c2ccccc2OC)[C@@H](CO)N3C)c1
AC50 [26]: 34.3 µM (active)
AC50 [27]: 21.6 µM (active)
AC50 (Paired box protein Pax-8): 11.1 µM (active)
AC50 [28]: 25.4 µM (active)

C[C@H]1CN([C@@H](C)CO)C(=O)Cc2cc(NS(=O)(=O)c3ccc(Cl)cc3)ccc2O[C@@H]1CN(C)Cc1ccc(-c2ccccc2)cc1
AC50 [12]: 3.8 µM (active)

COc1cccc(-c2cc3c(=O)n(-c4ccccc4)c(=S)[nH]c3s2)c1
IC50 (Major prion protein): 6.34 µM (active)
IC50 (cells): > 138 µM (inactive)

Cc1nc2cc(-c3cccc(Cl)c3)nn2c(N2CCN(C(=O)c3ccsc3)CC2)c1C
EC50 [22]: 4.62 µM (active)
EC50 [23]: 0.56 µM (active)

Cc1ccc(-c2nc(NC(=O)CSc3nnnn3-c3ccccc3)ns2)cc1
IC50 [14]: 1.06 µM (active)
